Values quoted from earlier work in patent publication US4202888A, “Readily enterally absorbable pharmaceutical compositions of cardiac glycosides and preparation thereof” (priority 1976, dated 1980).

Settings: for enteral absorbability (in words): background statement; for per se enteral absorbability: without partial glycerides

Row | Compound | enteral absorbability (in words) | per se enteral absorbability | factor of individual variation in enteral absorption (between individuals)
1 | C[C@H]1O[C@@H](O[C@H]2[C@@H](O)C[C@H](O[C@H]3[C@@H](O)C[C@H](O[C@H]4CC[C@@]5(C)[C@H](CC[C@@H]6[C@@H]5CC[C@]5(C)[C@@H](C7=CC(=O)OC7)CC[C@]65O)C4)O[C@@H]3C)O[C@@H]2C)C[C@H](O)[C@@H]1O [digitoxin] | absorbable completely | – | –
2 | k-strophanthin | insufficient enteral absorbability | less than 5% | –
3 | CC1OC(OC2CC(O)C3(CO)C4C(O)CC5(C)C(C6=CC(=O)OC6)CCC5(O)C4CCC3(O)C2)C(O)C(O)C1O (stereo not drawn) [g-strophanthin] | insufficient enteral absorbability | less than 5% | 10
4 | C[C@H]1O[C@@H](O[C@H]2[C@@H](O)C[C@H](O[C@H]3[C@@H](O)C[C@H](O[C@H]4CC[C@@]5(C)[C@H](CC[C@@H]6[C@@H]5C[C@@H](O)[C@]5(C)[C@@H](C7=CC(=O)OC7)CC[C@]65O)C4)O[C@@H]3C)O[C@@H]2C)C[C@H](O)[C@@H]1O [digoxin] | to at least an acceptable degree | – | –
5 | C[C@@H]1O[C@@H](O[C@@H]2C=C3CC[C@@H]4[C@H](CC[C@]5(C)[C@@H](c6ccc(=O)oc6)CC[C@]45O)[C@@]3(C)CC2)[C@H](O)[C@H](O)[C@H]1O [proscillaridin] | insufficient enteral absorbability | less than 5% | –
